Measurements from patent US20060246095A1, “Multiepitope polypeptides for cancer immunotherapy” (HADASIT MEDICAL RESEARCH SERVICES & DEVELOPMENT LTD., priority 2003, published 2006).

Legend:
[1] = tested on: specific T cell clones; assay: Recognition assay for peptide presentation by DC, statements on T cell clones overall; assay type: cell-based, human; details: MEP-transfected DC, Lactacystin 25 μM and 50 μM
Method: (§1) T cell clones were co-incubated with DC in flat 96-well plate for 24 hours. DC were plated immediately after their transfection or pulsing in 6 separated plates, in the presence of GM CSF and IL-4. 1×10^5 T cells were added to 1×10^5 pulsed or transfected DC. In the longitudinal study, T cell clones were added to the transfected/pulsed DC at the following time points: T0=immediately, +12=after 12 hours, 24, 36, 48 and 72 hours. Supernatants were collected after overnight incubation. Interferon gamma release assay was performed to evaluate T cell stimulation using the ELISA method, results are presented in pg/ml.
(§2) Lactacystin was added to DC at concentrations of 25 μM and 50 μM, 4 hours post transfection. DC were incubated with lactacystin for 70 minutes and then washed twice.
(§3) Responding T cells were added after washing the lactacystin and co-incubated. Supernatents were collected after 20 hours.
Efficiency of epitope presentation and stimulation of specific T cell clone proliferation were evaluated by comparing the specific T cell clones response to the DC transfected with the multiepitope, to DC that were pulsed with specific peptides or DC transfected with full length melanoma associated antigens (gp100 and MART-1), using the recognition assay. […]

[2] = tested on: mice; details: cited from earlier work
[3] = tested on: peripheral blood lymphocytes of breast carcinoma patients; details: cited from earlier work
[4] = tested on: T cell clone CK3H6 (A2 restricted gp100 epitope 209-217); assay: Recognition assay for peptide presentation by DC (IFN-γ release ELISA), T cell clone CK3H6; assay type: cell-based, human
Method: (§4) Dendritic cells were isolated from cytopheresis MNCs of melanoma patients with the HLA haplotypes HIA-A*0201 and HLA-DRβ1*0401. DC were generated from plastic adherent PBMCs cultured in RPMI with 10% human AB-serum, L-glutamine, penicillin-streptomycin, supplemented with GM-CSF 1000 IU/ml and IL-4 1000 IU/ml. By day 6, immature DC were harvested for electroporation.
(§5) 2.5-3×10^6 DC were re-suspended in 100 μl nucleofector solution and added to 5 μg of DNA plasmid in 2-mm electrode gap cuvettes. Transfected DC were immediately plated with CM containing GM/IL4 or let mature using TNFα 100 ng/ml and PGE2 1000 ng/ml. GFP-transfected DCs were collected 16-24 hours later for FACS analysis.
(§6) DC were pulsed with 1 μg/ml of the relevant peptides at 1×10^6 cells/ml. Stimulants were added after 1 hour incubation without washing the peptide.
CK3H6 which recognizes the A2 restricted gp100 epitope 209-217.
as §1, §2, §3
(§7) For recognition assay of DC epitope presentation, 1×10^5 cells from different T cell clones, that were grown from PBMCs of patients, and were restricted to particular melanoma antigen peptides, were co-incubated with 1×10^5 pulsed or transfected DC, in the presence of GM-CSF and IL-4. T cell clones were added to the transfected/pulsed DC at the following time points: T=0 immediately, T=12, 24, 36, 48, 72 hours. Supernatant was collected after overnight incubation and was subjected to interferon gamma release assay, in order to evaluate the specific T cell activity towards the particular peptide presented by the DC cells.
(§8) The results shown in the following tables represent the amount of Interferon-γ (pg/ml) secreted to the culture medium as an index for T cell stimulation.

[5] = tested on: TIL 1383 (A2 restricted tyrosinase epitope 369-377); assay: Recognition assay for peptide presentation by DC (IFN-γ release ELISA), TIL 1383; assay type: cell-based, human; details: control plate; peptide-pulsed DC; TIL 1383
Method: as §4, §5, §6
TIL 1383 which recognizes the A2 restricted tyrosinase epitope 369-377.
as §1, §2, §3, §7, §8

[6] = tested on: DC with CM (no T cell clone); assay: Recognition assay, CM in place of a T cell clone (IFN-γ background of DC); assay type: cell-based, human; details: transfected or peptide-pulsed DC, CM instead of T cell clone
Method: as §4, §5, §6, §1, §7, §8

[7] = tested on: T cell clone BR-B8 (DR4-restricted gp100 epitope 44-59); assay: Recognition assay for peptide presentation by DC (IFN-γ release ELISA), clone BR-B8; assay type: cell-based, human; details: control plate; peptide-pulsed DC; clone BR-B8
Method: as §4, §5
pcDNA-MEP and pcDNA-gp100 were co-transfected to detect Class II antigen presentation as an internal control.
BR-B8 which recognizes the DR4-restricted gp100 epitope 44-59.
as §1, §2, §3, §7, §8

[8] = tested on: T cell clone RB-154 (gp100 154-162 peptide); assay: Recognition assay for peptide presentation by DC (IFN-γ release ELISA), clone RB-154; assay type: cell-based, human; details: control plate; peptide-pulsed DC; clone RB-154
Method: as §4, §5, §6, §1, §7, §8

[9] = tested on: TIL 1940 (A2 restricted MART-1 epitope 27-35); assay: Recognition assay for peptide presentation by DC (IFN-γ release ELISA), TIL 1940; assay type: cell-based, human; details: TIL 1940
Method: as §4, §5, §6
TIL 1940 which recognizes the A2 restricted MART-1 epitope 27-35.
as §1, §2, §3, §7, §8

[10] = tested on: MHC; details: cited from earlier work
[11] = tested on: HHD mice; details: HLA-A2.1-restricted; cited from earlier work
[12] = tested on: CTLs in blood lymphocytes of breast carcinoma patients; details: personal communications; cited from earlier work
[13] = control plate, peptide-pulsed DC, T cell clone CK3H6
[14] = transfected or peptide-pulsed DC, Donor 1, T = 12 hours, CK3H6
[15] = transfected or peptide-pulsed DC, Donor 1, T = 24 hours, CK3H6
[16] = transfected or peptide-pulsed DC, Donor 1, T = 36 hours, CK3H6
[17] = transfected or peptide-pulsed DC, Donor 1, T = 48 hours, CK3H6
[18] = transfected or peptide-pulsed DC, Donor 1, T = 72 hours, CK3H6
[19] = transfected or peptide-pulsed DC, Donor 2, T = 12 hours, CK3H6
[20] = transfected or peptide-pulsed DC, Donor 2, T = 24 hours, CK3H6
[21] = transfected or peptide-pulsed DC, Donor 2, T = 36 hours, CK3H6
[22] = transfected or peptide-pulsed DC, Donor 2, T = 48 hours, CK3H6
[23] = transfected or peptide-pulsed DC, Donor 2, T = 72 hours, CK3H6
[24] = control plate, peptide-pulsed DC
[25] = transfected or peptide-pulsed DC, Donor 1, T = 12 hours
[26] = transfected or peptide-pulsed DC, Donor 1, T = 24 hours
[27] = transfected or peptide-pulsed DC, Donor 1, T = 36 hours
[28] = transfected or peptide-pulsed DC, Donor 1, T = 48 hours
[29] = transfected or peptide-pulsed DC, Donor 1, T = 72 hours
[30] = transfected or peptide-pulsed DC, Donor 2, T = 12 hours
[31] = transfected or peptide-pulsed DC, Donor 2, T = 24 hours
[32] = transfected or peptide-pulsed DC, Donor 2, T = 36 hours
[33] = transfected or peptide-pulsed DC, Donor 2, T = 48 hours
[34] = transfected or peptide-pulsed DC, Donor 2, T = 72 hours

Sequence of MHC (P61769 21-119): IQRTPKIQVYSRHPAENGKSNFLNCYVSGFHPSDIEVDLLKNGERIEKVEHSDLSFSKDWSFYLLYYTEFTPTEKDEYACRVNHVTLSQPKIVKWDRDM

CC(=O)N[C@@H](CSC(=O)[C@]1([C@@H](O)C(C)C)NC(=O)[C@H](C)[C@@H]1O)C(=O)O [Lactacystin]
effect of proteasomal inhibition on epitope expression [1]: decreased the epitope expression of MEP-Mel to background level

BA46-6: peptide BA46-6 (NLFETPVEA) of Lactadherin, SEQ ID NO: 27 (listed as Homo sapiens)
specific CTL activity [2]: elicited specific CTL activity | specific CTL activity [3]: elicited specific CTL activity

BA46-7: peptide BA46-7 (GLQHWVPEL) of Lactadherin, SEQ ID NO: 28 (listed as Homo sapiens)
specific CTL activity [2]: elicited specific CTL activity | specific CTL activity [3]: elicited specific CTL activity

MART-1 27-35: peptide 27-35 of MART-1, SEQ ID NO: 18
Interferon-γ secreted to the culture medium [4, 13]: 1 pg/mL | Interferon-γ secreted to the culture medium [4, 14]: 11 pg/mL | Interferon-γ secreted to the culture medium [4, 15]: 6 pg/mL | Interferon-γ secreted to the culture medium [4, 16]: 10 pg/mL | Interferon-γ secreted to the culture medium [4, 17]: 0 pg/mL | Interferon-γ secreted to the culture medium [4, 18]: 0 pg/mL | Interferon-γ secreted to the culture medium [4, 19]: 10 pg/mL | Interferon-γ secreted to the culture medium [4, 20]: 10 pg/mL | Interferon-γ secreted to the culture medium [4, 21]: 8 pg/mL | Interferon-γ secreted to the culture medium [4, 22]: 0 pg/mL | Interferon-γ secreted to the culture medium [4, 23]: 0 pg/mL | Interferon-γ secreted to the culture medium [5]: 1 pg/mL | Interferon-γ secreted to the culture medium ([6]; Donor 1, T = 12 hours): 10 pg/mL | Interferon-γ secreted to the culture medium ([6]; Donor 1, T = 48 hours): 0 pg/mL | Interferon-γ secreted to the culture medium ([6]; Donor 1, T = 72 hours): 0 pg/mL | Interferon-γ secreted to the culture medium ([6]; Donor 2, T = 12 hours): 9 pg/mL | Interferon-γ secreted to the culture medium ([6]; Donor 2, T = 24 hours): 7 pg/mL | Interferon-γ secreted to the culture medium ([6]; Donor 2, T = 36 hours): 8 pg/mL | Interferon-γ secreted to the culture medium ([6]; Donor 2, T = 48 hours): 0 pg/mL | Interferon-γ secreted to the culture medium ([6]; Donor 2, T = 72 hours): 0 pg/mL | Interferon-γ secreted to the culture medium [7]: 1 pg/mL | Interferon-γ secreted to the culture medium [8]: 1 pg/mL | Interferon-γ secreted to the culture medium [9, 24]: >2000 pg/mL | Interferon-γ secreted to the culture medium [9, 25]: 9 pg/mL | Interferon-γ secreted to the culture medium [9, 26]: 435 pg/mL | Interferon-γ secreted to the culture medium [9, 27]: 99 pg/mL | Interferon-γ secreted to the culture medium [9, 28]: 0 pg/mL | Interferon-γ secreted to the culture medium [9, 29]: 0 pg/mL | Interferon-γ secreted to the culture medium [9, 30]: 448 pg/mL | Interferon-γ secreted to the culture medium [9, 31]: 254 pg/mL | Interferon-γ secreted to the culture medium [9, 32]: 49 pg/mL | Interferon-γ secreted to the culture medium [9, 33]: 0 pg/mL | Interferon-γ secreted to the culture medium [9, 34]: 0 pg/mL

MUC1/A7: peptide A7 (NLTISDVSV) of MUC1, SEQ ID NO: 26 (listed as Homo sapiens)
MHC-binding affinity [10]: high | CTL induced upon vaccination, lysis of human carcinoma lines [11]: effectively lysed the human carcinoma lines | activation of CTLs in blood lymphocytes, patients responding [12]: 2/4

MUC1/D6: peptide D6 (LLLTVLTVV) of MUC1, SEQ ID NO: 25 (listed as Homo sapiens)
MHC-binding affinity [10]: high | CTL induced upon vaccination, lysis of human carcinoma lines [11]: effectively lysed the human carcinoma lines | activation of CTLs in blood lymphocytes, patients responding [12]: 3/4

TYR 369-377: peptide 369-377 derived from Tyrosinase, SEQ ID NO: 17
Interferon-γ secreted to the culture medium [4, 13]: 1 pg/mL | Interferon-γ secreted to the culture medium [5]: 69 pg/mL | Interferon-γ secreted to the culture medium [7]: 1 pg/mL | Interferon-γ secreted to the culture medium [8]: 0 pg/mL | Interferon-γ secreted to the culture medium [9, 24]: 1 pg/mL

gp 100 154-162: peptide 154-162 of gp100, SEQ ID NO: 24
Interferon-γ secreted to the culture medium [4, 13]: 7 pg/mL | Interferon-γ secreted to the culture medium [5]: 6 pg/mL | Interferon-γ secreted to the culture medium [7]: 1 pg/mL | Interferon-γ secreted to the culture medium [8]: >2000 pg/mL | Interferon-γ secreted to the culture medium [9, 24]: 6 pg/mL

gp 100 209-217: peptide 209-217 of gp100, SEQ ID NO: 16
Interferon-γ secreted to the culture medium [4, 13]: >2000 pg/mL | Interferon-γ secreted to the culture medium [4, 14]: >2000 pg/mL | Interferon-γ secreted to the culture medium [4, 15]: 31 pg/mL | Interferon-γ secreted to the culture medium [4, 16]: 12 pg/mL | Interferon-γ secreted to the culture medium [4, 17]: 0 pg/mL | Interferon-γ secreted to the culture medium [4, 18]: 0 pg/mL | Interferon-γ secreted to the culture medium [4, 19]: >2000 pg/mL | Interferon-γ secreted to the culture medium [4, 20]: 18 pg/mL | Interferon-γ secreted to the culture medium [4, 21]: 11 pg/mL | Interferon-γ secreted to the culture medium [4, 22]: 0 pg/mL | Interferon-γ secreted to the culture medium [4, 23]: 0 pg/mL | Interferon-γ secreted to the culture medium [5]: 1 pg/mL | Interferon-γ secreted to the culture medium ([6]; Donor 1, T = 12 hours): 9 pg/mL | Interferon-γ secreted to the culture medium ([6]; Donor 1, T = 48 hours): 0 pg/mL | Interferon-γ secreted to the culture medium ([6]; Donor 1, T = 72 hours): 0 pg/mL | Interferon-γ secreted to the culture medium ([6]; Donor 2, T = 12 hours): 8 pg/mL | Interferon-γ secreted to the culture medium ([6]; Donor 2, T = 24 hours): 6 pg/mL | Interferon-γ secreted to the culture medium ([6]; Donor 2, T = 36 hours): 8 pg/mL | Interferon-γ secreted to the culture medium ([6]; Donor 2, T = 48 hours): 0 pg/mL | Interferon-γ secreted to the culture medium ([6]; Donor 2, T = 72 hours): 0 pg/mL | Interferon-γ secreted to the culture medium [7]: 1 pg/mL | Interferon-γ secreted to the culture medium [8]: 1 pg/mL | Interferon-γ secreted to the culture medium [9, 24]: 1 pg/mL | Interferon-γ secreted to the culture medium [9, 25]: 10 pg/mL | Interferon-γ secreted to the culture medium [9, 26]: 1 pg/mL | Interferon-γ secreted to the culture medium [9, 27]: 13 pg/mL | Interferon-γ secreted to the culture medium [9, 28]: 0 pg/mL | Interferon-γ secreted to the culture medium [9, 29]: 0 pg/mL | Interferon-γ secreted to the culture medium [9, 30]: 12 pg/mL | Interferon-γ secreted to the culture medium [9, 31]: 6 pg/mL | Interferon-γ secreted to the culture medium [9, 32]: 7 pg/mL | Interferon-γ secreted to the culture medium [9, 33]: 0 pg/mL | Interferon-γ secreted to the culture medium [9, 34]: 0 pg/mL
